“Also recorded” adds a separate entry of the source.
What was measured:
[1] = test system: miR-96 and miR-210 levels; test: Effect on miR-96 and miR-210 levels under hypoxic conditions; assay type: cell-based
HIF-1α mRNA [2] = test: RT-qPCR of HIF-1α mRNA in hypoxic MDA-MB-231 cells; assay type: cell-based; details: 200 nM
Experimental: (§1) MDA-MB-231 cells were cultured in RPMI 1640 medium supplemented with 10% FBS (Sigma), 1× Glutagro (Corning), and 1× Pen/Strep (MP Biomedicals, LLC) (growth medium). Cells cultured in normoxia were maintained at 37° C. in ambient atmosphere (˜21% O2) with 5% CO2. Cells cultured in hypoxia were maintained at 37° C., <1% O2 in a nitrogen filled hypoxic chamber (Billups-Rothenberg, Inc.), and 5% CO2.
(§2) Approximately 200-600 ng of RNA was used in subsequent reverse transcription reactions using a miScript II RT Kit (Qiagen) or a qScript cDNA Synthesis Kit (Quanta Biosciences) per the manufacturers' recommended protocols. Primers for RT-qPCR were purchased from Integrated DNA Technologies (IDT) or Eurofins (Table S1) and used without further purification. RT-qPCR samples were prepared using Power SYBR Green PCR Master Mix (Applied Biosystems) and completed by using a 7900HT Fast Real Time PCR System (Applied Biosystems). Expression levels of RNA were normalized to U6 small nuclear RNA, GAPDH mRNA, or 18S rRNA.

miR-210 [3] = test: RT-qPCR of miR-210 (mature, pri-, pre-) in MDA-MB-231 cells under hypoxic conditions; assay type: cell-based
Experimental: as §1, §2

HIF-1α mRNA [4] = test: RT-qPCR of resected tumors, HIF-1α; assay type: in vivo, NOD/SCID mice; details: compared to untreated tumors
Experimental: as §2
(§3) NOD/SCID mice (B6.CB17-Prkdcscid/Sz, Jackson Laboratories) were housed in the Scripps Florida vivarium. All live animal experiments were approved by the Scripps Florida Institutional Animal Care and Use Committee. Two sets of experiments were completed: treatment of MDA-MB-231-GFP-luc cells prior to implantation and treatment of mice post-tumor implantation. For pre-treatment of tumor cells, MDA-MB-231-GFP-luc cells (5×10^6) were treated with or without Targapremir-210 (200 nM) or anti-miR-210 antagomir (500 nM) for 48 h pre-implantation. […]
(§4) Tumor growth was monitored weekly post-implantation by i.p. injection of 200 μL D-luciferin (15 mg/mL) and imaging with an IVIS 200 system. […] Levels of mature miR-210, HIF-1a, and GPLDL1 RNAs were measured by RT-qPCR as described above.

[5] = test system: 15 miRNAs that have an RNA isoform that binds Targapremir-210; test: Cellular Chem-CLIP, RNA isoforms; assay type: cell-based; details: MDA-MB-231 cells; miR-497, miR-1273c, miR-3174, miR-107
Experimental: (§5) MDA-MB-231 cells were grown in growth medium as monolayers in 60 mm dishes to ˜60% confluency. […] Cells were immediately placed under hypoxic conditions for 48 h, and total RNA was extracted using a Quick-RNA MiniPrep (Zymo Research) per the manufacturer's protocol. Approximately 10 μg of total RNA was incubated with 100 μL of streptavidin-agarose beads in 1× PBS for 1 h at room temperature with gentle shaking. The solution was removed and the beads were washed 8 times with 300 μL of in 1× PBS. Bound RNA was released from the beads by heating in 1× Elution Buffer (95% formamide, 10 mM EDTA, pH 8.2) at 60° C. for 20 min. The pulled-down RNA was purified using a Quick-RNA MiniPrep Kit (Zymo Research) and then used for subsequent RT and qPCR reactions as described above.
(§6) The relative fold-change in the amount of an RNA before and after pull-down was calculated by the ΔΔCt method as shown in equation 1: […]
(§7) Relative Fold−Change:2^−(ΔC^t ^before pull-down−Δc^t ^after pull-down) (1)
(§8) where the “ΔCt before pull-down” is the difference between the Ct values for the RNA of interest and a housekeeping gene (U6 small nuclear RNA, GAPDH mRNA, or 18S rRNA) in total RNA isolated from cells and “ΔCtafter pull-down” is the difference between the Ct values the RNA of interest and the same housekeeping gene after pull-down.

[6] = test system: miR-210 hairpin precursor (pre-miR-210), Dicer processing; test: In vitro Dicer protection assay; assay type: biochemical; details: recombinant human Dicer, gel quantification
Experimental: The miR-210 precursor was 5′-end labeled with [γ-^32P] ATP and T4 polynucleotide kinase as previously described^4. The RNA was then folded in 1× Reaction Buffer (Genlantis) by heating at 60° C. for 5 min and slowly cooling to room temperature, where it was then supplemented with 1 mM ATP and 2.5 mM MgCl2. Targapremir-210 was added to the reaction mixture and the samples were allowed to incubate at room temperature for 15 min. Recombinant human Dicer enzyme (Genlantis) was added to a final concentration of 0.01 U/μL and the samples were incubated for an additional 30 min at 37 ° C. Reactions were stopped by adding in 2× Gel Loading Buffer (8 M urea, 50 mM EDTA, 0.05% (w/v) bromophenol blue, 0.05% (w/v) xylene cyanol). To generate sequencing markers, pre-miR-210 was digested with RNase T1 (0.125 U/μL) in T1 Buffer (25 mM sodium citrate, pH 5, 7 M urea, and 1 mM EDTA) for 20 min at room temperature. An RNA hydrolysis ladder was prepared by incubating RNA in 1× RNA Hydrolysis Buffer (50 mM NaHCO3, 1 mM EDTA, pH 9.4) at 95° C. for 5 min. Cleavage products were resolved on a denaturing 15% polyacrylamide gel, which was imaged using a Molecular Dynamics Typhoon phosphorimager and quantified with Bio-Rad's QuantityOne software.

[7] = test system: RNA in which the Dicer site was ablated; details: reference 15; cited from earlier work
[8] = Tumor localization by fluorescent microscopy; assay type: in vivo, NOD/SCID mice; details: single i.p. injection
Experimental: Resected tumor samples were frozen using O.C.T. Compound (Tissue-Tek) over dry ice. Frozen tissues were sectioned by cryostat and transferred to microscope slides. Fluorescent microscopic analysis was carried out using a Leica DMI3000 B upright fluorescent microscope.

[9] = test system: MDA-MB-231-GFP-Luc tumors; test: TNBC mouse xenograft model, tumor burden; assay type: in vivo, NOD/SCID mice; details: 200 nM, cell pre-treatment or single injection 24 h post-implantation; 21 days
Experimental: NOD/SCID mice (B6.CB17-Prkdcscid/Sz, Jackson Laboratories) were housed in the Scripps Florida vivarium. All live animal experiments were approved by the Scripps Florida Institutional Animal Care and Use Committee. Two sets of experiments were completed: treatment of MDA-MB-231-GFP-luc cells prior to implantation and treatment of mice post-tumor implantation. For pre-treatment of tumor cells, MDA-MB-231-GFP-luc cells (5×10^6) were treated with or without Targapremir-210 (200 nM) or anti-miR-210 antagomir (500 nM) for 48 h pre-implantation. A 100 μL PBS/Matrigel (1:1; BD Biosciences) cell suspension was subcutaneously transplanted into mouse breast fat pads. Alternatively, mouse breast fat pads were injected with a 100 μL PBS/Matrigel (1:1) cell suspension (5×10^6MDA-MB-231-GFP-luc cells) followed by intraperitoneal (i.p) injection of Targapremir-210 (100 μL of 200 nM) or anti-miR-210 antagomir (100 μL of 500 nM) 24 h post-transplantation.
Tumor growth was monitored weekly post-implantation by i.p. injection of 200 μL D-luciferin (15 mg/mL) and imaging with an IVIS 200 system. Tumors were resected 21 days post-transplantation following euthanasia. Levels of mature miR-210, HIF-1a, and GPLDL1 RNAs were measured by RT-qPCR as described above.

[10] = test system: miR-210 hairpin precursor; test: Cellular Chem-CLIP and C-Chem-CLIP, miR-210; assay type: cell-based; details: read-out: concentration required to inhibit ˜50% of the reaction of Targapremir-210-CA-Biotin with the miR-210 hairpin precursor (C-Chem-CLIP); MDA-MB-231 cells, 200 nM probe
Experimental: as §5, §6, §7, §8

[11] = test system: hypoxia-associated miRNAs; test: Cellular Chem-CLIP and C-Chem-CLIP, hypoxia-associated miRNAs; assay type: cell-based
Experimental: as §5, §6, §7, §8

pre-miR-210 RNA = test: In solution fluorescent binding assay; details: compared with binding to the Dicer site motif
Experimental: Dissociation constants for the binding of pre-miR-210 RNA to Hoechst 33342 and Targapremir-210 were determined using an in solution, fluorescent binding assay. RNA was folded in 1× Binding Buffer (8 mM Na2HPO4, 190 mM NaCl, 1 mM EDTA, and 40 μg/mL BSA) at 60° C. for 5 min and then allowed to cool to room temperature for 10 min. Hoechst 33342 or Targapremir-210 was added to a final concentration of 500 nM. Next, 1:2 serial dilutions were performed in 1× Binding Buffer supplemented with 500 nM of Hoechst 33342 or Targapremir-210. Solutions were incubated for 30 min and then transferred to Corning non-binding surface 96-well black plates. Fluorescence intensity was then measured on a Bio-Tek FLX-800 plate reader. Change in fluorescence intensity was fit as a function of RNA concentration with equation 1: […]
where I and I0 are the observed fluorescence intensity in the presence and absence of RNA, respectively, Δε is the difference between the fluorescence intensity in the absence and in the presence of infinite RNA concentration, [FL]0 and [RNA]0 are the concentrations of compound (Hoechst 33342 or Targapremir-210) and RNA, respectively, and Kt is the dissociation constant.

GPD1L = test: RT-qPCR of GPD1L in hypoxic MDA-MB-231 cells; assay type: cell-based; details: 200 nM
Experimental: as §1, §2

miR-210 [12] = test: RT-qPCR of resected tumors, miR-210; assay type: in vivo, NOD/SCID mice; details: compared to untreated tumors
Experimental: as §2, §3, §4

MDA-MB-231 cells = test: Apoptosis by Annexin V/propidium iodide staining and flow cytometry; assay type: cell-based; details: 200 nM
Experimental: as §1

Topoisomerase II = biological target: T1, Topoisomerase II (Homo sapiens, UniProt P11388); test: In vitro topoisomerase inhibition assay; assay type: biochemical; details: 200 nM
T1 construct: purchased TopoGEN, Inc
T1 sequence (P11388 whole entry): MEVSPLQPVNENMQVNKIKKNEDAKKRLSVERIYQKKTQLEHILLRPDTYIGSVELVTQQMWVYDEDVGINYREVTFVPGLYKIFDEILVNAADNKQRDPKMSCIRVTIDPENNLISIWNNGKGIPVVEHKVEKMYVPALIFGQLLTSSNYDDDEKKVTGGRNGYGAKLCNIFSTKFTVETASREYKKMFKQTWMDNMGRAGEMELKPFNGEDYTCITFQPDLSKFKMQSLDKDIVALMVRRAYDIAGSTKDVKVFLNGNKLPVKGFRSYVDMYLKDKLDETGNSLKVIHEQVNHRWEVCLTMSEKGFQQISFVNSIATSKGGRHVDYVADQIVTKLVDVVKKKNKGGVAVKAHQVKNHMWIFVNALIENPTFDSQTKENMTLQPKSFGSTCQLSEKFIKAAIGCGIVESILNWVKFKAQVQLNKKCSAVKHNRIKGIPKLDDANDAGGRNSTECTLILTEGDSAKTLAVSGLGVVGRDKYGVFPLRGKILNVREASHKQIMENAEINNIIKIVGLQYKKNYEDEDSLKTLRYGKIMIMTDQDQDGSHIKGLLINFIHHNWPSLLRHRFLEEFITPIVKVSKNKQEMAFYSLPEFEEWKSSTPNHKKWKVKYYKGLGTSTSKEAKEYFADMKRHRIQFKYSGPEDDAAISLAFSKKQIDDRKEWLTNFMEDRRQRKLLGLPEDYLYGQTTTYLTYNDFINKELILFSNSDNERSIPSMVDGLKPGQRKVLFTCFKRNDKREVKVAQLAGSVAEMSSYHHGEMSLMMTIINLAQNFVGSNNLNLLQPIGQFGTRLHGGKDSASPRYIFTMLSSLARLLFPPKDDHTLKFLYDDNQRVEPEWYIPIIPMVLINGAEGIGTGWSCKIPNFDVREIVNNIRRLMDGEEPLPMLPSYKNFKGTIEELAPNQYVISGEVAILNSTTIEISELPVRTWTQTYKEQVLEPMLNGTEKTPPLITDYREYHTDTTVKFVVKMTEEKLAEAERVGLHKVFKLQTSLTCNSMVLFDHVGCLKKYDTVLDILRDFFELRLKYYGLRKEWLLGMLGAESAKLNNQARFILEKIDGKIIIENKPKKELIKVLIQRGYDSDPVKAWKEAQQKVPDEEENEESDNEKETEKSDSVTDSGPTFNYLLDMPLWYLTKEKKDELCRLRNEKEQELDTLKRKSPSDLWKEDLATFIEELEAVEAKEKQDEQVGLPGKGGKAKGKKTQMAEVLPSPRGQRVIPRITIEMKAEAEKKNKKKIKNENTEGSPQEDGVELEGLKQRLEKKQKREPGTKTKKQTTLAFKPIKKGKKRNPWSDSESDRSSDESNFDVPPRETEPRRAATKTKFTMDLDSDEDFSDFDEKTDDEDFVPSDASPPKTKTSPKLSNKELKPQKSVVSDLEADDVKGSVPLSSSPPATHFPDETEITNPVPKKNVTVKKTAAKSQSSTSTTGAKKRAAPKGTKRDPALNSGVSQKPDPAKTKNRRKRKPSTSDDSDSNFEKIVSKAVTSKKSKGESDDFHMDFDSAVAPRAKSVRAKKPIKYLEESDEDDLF
Experimental: Topoisomerase II inhibitory activity was measured using a Topoisomerase II Drug Screening Kit (TopoGEN, Inc.) per the manufacturer's protocol. Taragpremir-210 (200 nM) was added to 300 ng of DNA in 1× Complete Buffer (50 mM Tris-HCl, pH 8, 150 mM NaCl, 10 mM MgCl2, 0.5 mM dithiothreitol, 30 μg/mL BSA, and 2 mM ATP), followed by addition of 7.5 U of Topoisomerase II enzyme. The samples were incubated for 30 min at 37° C., and the reaction was stopped by the addition of 2 µL of 10% sodium dodecyl sulfate (SDS). Proteinase K (50 μg/mL) was then added and the solution was incubated for 15 min at 37° C. Topoisomers were separated on 1% agarose gels with or without 0.5 μg/mL ethidium bromide. Note, for gels containing ethidium bromide, the 1× TAE running buffer was also supplemented with 0.5 μg/mL ethidium bromide. Gels prepared without ethidium bromide were post-stained (0.5 μg/mL ethidium bromide). Both types of gels were destained in 1× TAE for 15 min, and the DNA products were visualized using a Bio-Rad Gel Doc XR+imaging system.

[13] = test system: panel of hypoxia-associated miRNAs (n=28); test: Cellular selectivity, RT-qPCR of hypoxia-associated miRNAs; assay type: cell-based; details: 200 nM, MDA-MB-231 cells
Experimental: as §1, §2

GPD1L mRNA = test: RT-qPCR of resected tumors, GPD1L; assay type: in vivo, NOD/SCID mice; details: compared to untreated tumors
Experimental: as §2, §3, §4

[14] = test system: miRNAs with predicted compound binding sites; test: Cellular selectivity, RT-qPCR of RNA isoforms; assay type: cell-based; details: hypoxic MDA-MB-231 cells
Experimental: as §1, §2

[15] = biological target: pre-miR-210 Dicer site, 5′ACU3′/3′UCA5′; details: 5′ACU3′/3′UCA5′ motif; reference 15; read-out: Kd, binding affinity for the pre-miR-210 Dicer site; cited from earlier work
[16] = 200 nM, hypoxic MDA-MB-231 cells

Compound: Targaprimir-96 [reference compound]
- effect on miR-96 and miR-210 levels [1]: only affects miR-96

Compound: CN1CCN(c2ccc3nc(-c4ccc5[nH]c(-c6cccc(OCCCC(=O)NCCCN=[N+]=[N-])c6)nc5c4)[nH]c3c2)CC1 [Targapremir-210]
- reduction of HIF-1α mRNA levels (HIF-1α mRNA [2]): ~75%
- increase in pre-miR-210 levels (miR-210 [3]; [16]): ~2.6 fold
- increase in pri-miR-210 levels (miR-210 [3]; [16]): ~3 fold
- IC50 (miR-210 [3]; Homo sapiens, MDA-MB-231 cells, hypoxic conditions, RT-qPCR, read-out: IC50, decrease of mature miR-210 levels): ~200 nM
- reduction of HIF-1α levels in resected tumors (HIF-1α mRNA [4]): ~75%
- miRNAs with RNA isoform bound in cells (Chem-CLIP) [5]: only four of the miRNAs are bound
- inhibition of Dicer processing of pre-miR-210 in vitro [6]: inhibited pre-miR-210 processing at nanomolar concentrations
- binding to RNA in which the Dicer site was ablated [7]: did not bind
- compound localization in tumor [8]: able to reach the tumor and sustain for the entire 21-day period
- tumor growth (luciferase signal intensity, mass of the resected tumor) [9]: significantly decreased tumor growth
- IC50 [10]: 200 nM
- highest relative fold pull-down among hypoxia-associated miRNAs other than miR-210 ([11]; Chem-CLIP probe pull-down, three of 28 enriched (miR-181a, miR-205, miR-206)): ~2.8 fold
- abundance of other hypoxia-associated miRNAs as a function of Targapremir-210 concentration (C-Chem-CLIP) ([11]; MDA-MB-231 cells): did not change
- binding to in vitro transcribed pre-miR-210 (pre-miR-210 RNA): binds similarly
- increase of GPD1L levels (GPD1L): ~4 fold
- reduction of miR-210 levels in resected tumors (miR-210 [12]): ~90%
- apoptosis (MDA-MB-231 cells; hypoxic conditions): induced apoptosis
- apoptosis with overexpression of pre-miR-210 (MDA-MB-231 cells; hypoxic conditions, pre-miR-210 overexpressed): allowed cells to escape apoptosis
- apoptosis (MDA-MB-231 cells; normoxia): did not induce apoptosis
- inhibition of topoisomerase enzymatic activity (Topoisomerase II): did not inhibit topoisomerase activity
- effect on levels of hypoxia-associated miRNAs [13]: affected only levels of mature miR-210
- GPD1L levels in resected tumors (GPD1L mRNA): doubled
- effect on miR-96 and miR-210 levels [1]: only affects miR-210
- effect on expression levels of miRNAs with predicted compound binding sites [14]: only affected levels of miR-210; also recorded: no statistically significant effect
- Kd [15]: ~200 nM

Source: patent publication US20230041228A1, “Small Molecule Inhibition of Micro-RNA-210 Reprograms an Oncogenic Hypoxic Circuit” (University of Florida Research Foundation, Incorporated, priority 2017, published 2023)
